This note sets out measurements from ChEMBL document CHEMBL1949647, “Design, synthesis and biological evaluation of peptidyl-vinylaminophosphonates as novel cysteine protease inhibitors” (Bioorg Med Chem, 2011).

As usually defined, the Ki is a dissociation constant, usually derived from enzyme kinetics or from competition with a known ligand. What is called IC50 is the point on the concentration scale where inhibition reaches its midpoint.

The structures appear in SMILES notation. Peptide text beside a SMILES is read from it. * marks the point of attachment. Cbz = O=C(OCc1ccccc1)*

One test has as its target Cathepsin B (Homo sapiens, UniProt P07858). The test can be described thus: Inhibition of cathepsin B.
`CC[C@H](C)[C@H](NC(=O)[C@H](CCCNC(=N)N)NC(=O)OCc1ccccc1)C(=O)N[C@H](/C=N/NC(N)=O)Cc1ccccc1`: the Ki was 0.5 µM.

With `C[C@H](NC(=O)OCc1ccccc1)C(=O)N[C@@H](Cc1ccccc1)C(=O)OCF`, the Ki is 174000 µM. The compound `O=C(O)CNC(=O)[C@H](Cc1ccccc1)NC(=O)OCc1ccccc1` (Cbz-Phe-Gly-OH) showed a Ki of 5610 µM. `COC(=O)CNC(=O)[C@H](Cc1ccccc1)NC(=O)OCc1ccccc1` (Cbz-Phe-Gly-OMe) had an inhibitory constant (Ki) of 13500 µM.

A further test deals with T1, Papain (Carica papaya, UniProt P00784).
T1 sequence (P00784 whole entry): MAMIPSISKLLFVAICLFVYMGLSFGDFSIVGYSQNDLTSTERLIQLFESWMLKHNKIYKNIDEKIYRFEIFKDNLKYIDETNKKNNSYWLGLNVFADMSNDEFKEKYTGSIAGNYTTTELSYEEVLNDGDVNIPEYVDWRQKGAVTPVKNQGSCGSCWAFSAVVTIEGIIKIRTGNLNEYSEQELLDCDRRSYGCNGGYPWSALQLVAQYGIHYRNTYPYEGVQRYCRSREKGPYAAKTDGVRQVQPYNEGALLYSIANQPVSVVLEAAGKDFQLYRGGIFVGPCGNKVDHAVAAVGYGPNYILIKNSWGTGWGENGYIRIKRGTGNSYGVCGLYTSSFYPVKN
The test can be described thus: Inhibition of papaya papain using BAPNA as substrate assessed as p-nitroaniline release by spectrophotometric analysis.
Turning to `CCOP(=O)(/C=C/C(NC(=O)[C@H](Cc1ccccc1)NC(=O)[C@H](Cc1ccccc1)NC(=O)OCc1ccccc1)c1ccccc1)OCC` (mixture of isomers), the IC50 was determined as 125 µM.

With `CCOP(=O)(/C=C/C(NC(=O)[C@H](CC(C)C)NC(=O)[C@H](Cc1ccccc1)NC(=O)OC(C)(C)C)c1ccccc1)OCC` (mixture of isomers), the IC50 turned out to be 132 µM. On to `CCOP(=O)(/C=C/C(NC(=O)[C@H](Cc1c[nH]c2ccccc12)NC(=O)OCc1ccccc1)c1ccccc1)OCC` (mixture of isomers), for which the IC50 was over 200 µM. For the compound `CCOP(=O)(/C=C/C(NC(=O)[C@H](Cc1ccccc1)NC(=O)[C@H](Cc1ccccc1)NC(=O)OC(C)(C)C)c1ccccc1)OCC` (mixture of isomers), the IC50 stood at 83 µM. Regarding `CCOP(=O)(/C=C/C(NC(=O)[C@H](Cc1ccccc1)NC(=O)OCc1ccccc1)c1ccccc1)OCC` (mixture of isomers), the IC50 stood at 30 µM. `CCOP(=O)(/C=C/C(NC(=O)[C@H](Cc1ccc(O)cc1)NC(=O)OCc1ccccc1)c1ccccc1)OCC` (mixture of isomers): the IC50 was 54 µM.

Regarding `CCOP(=O)(/C=C/C(NC(=O)[C@H](CC(C)C)NC(=O)OCC1c2ccccc2-c2ccccc21)c1ccccc1)OCC` (mixture of isomers), the IC50 is over 200 µM. For `CCOP(=O)(/C=C/C(NC(=O)[C@H](Cc1ccccc1)NC(=O)OC(C)(C)C)c1ccccc1)OCC` (mixture of isomers), the IC50 came to 40 µM. In the case of `CCOP(=O)(/C=C/C(NC(=O)[C@H](CC(C)C)NC(=O)OCc1ccccc1)c1ccccc1)OCC` (mixture of isomers), the IC50 was over 200 µM. Turning to `CCOP(=O)(/C=C/C(NC(=O)[C@H](CC(C)C)NC(=O)OC(C)(C)C)c1ccccc1)OCC` (mixture of isomers), the IC50 is over 200 µM.

The next test addresses T1, Papain. Nature of the test: Inhibition of papaya papain.
For `CC[C@H](C)[C@H](NC(=O)[C@H](CCCNC(=N)N)NC(=O)OCc1ccccc1)C(=O)N[C@H](/C=N/NC(N)=O)Cc1ccccc1`, the Ki stood at 0.023 µM.

The compound `CC(C)[C@H](NC(=O)[C@H](CCCNC(=N)N)NC(=O)N[C@@H](Cc1ccccc1)C(=O)O)C(=O)N[C@H](C=O)CCCNC(=N)N` [ANTIPAIN] gave a Ki of 265 µM. `O=C(O)CNC(=O)[C@H](Cc1ccccc1)NC(=O)OCc1ccccc1` (Cbz-Phe-Gly-OH) gave an inhibition constant (Ki) of 19600 µM. The same measure, in the same setting: then `COC(=O)CNC(=O)[C@H](Cc1ccccc1)NC(=O)OCc1ccccc1` (Cbz-Phe-Gly-OMe), with 2700 µM.

The target in another test is T1, Papain. The test can be described thus: Inhibition of papaya papain using methyl hippurate as substrate by titrimetric method.
`COC(=O)N[C@@H](Cc1ccccc1)C(=O)NCC#N` gave a Ki of 6890 µM.
